Reference: paper PMC12440824, “Chimeric deubiquitinase engineering reveals structural basis for specific inhibition of the mitophagy regulator USP30” (Nature Structural & Molecular Biology, 2025)

Key:
[1] = tested on: HeLa cells expressing YFP–parkin; ubiquitination of USP30 substrates (TOM20, TOM40, MFN2); test: Mitochondrial ubiquitination analysis (OtUBD enrichment, western blot); format: cell-based, human; details: 2 µM compound 19 h, then 10 µM CCCP 1 h
Protocol: Using a Trans-Blot Turbo system (Bio-Rad, 1.0 A, 25 V, 30 min), proteins were blotted onto a nitrocellulose membrane. Membranes were saturated by incubating in 5% (wt/vol) non-fat milk in PBS-T. Primary antibodies (anti-Flag, 1:1,000, Sigma, F3165; anti-USP30, 1:500, Sigma, HPA016952; anti-vinculin, 1:10,000, Sigma, V9131; anti-GAPDH, 1:10,000, Thermo Fisher, AM4300; anti-TOM40, 1:2,000, Proteintech, 18409-1-AP; anti-TOM20, 1:5,000, Proteintech, 11802-1-AP; anti-MFN2, 1:5,000, Proteintech, 12186-1-AP) were allowed to bind overnight. Appropriate horseradish peroxidase-coupled secondary antibodies (anti-mouse, 1:5,000, Sigma, NXA931; anti-rabbit, 1:5,000, Sigma, GENA934) were applied, and chemiluminescence was generated using Clarity Western ECL Substrate (Bio-Rad). For detection of endogenous USP30 levels, the Clarity Western ECL Substrate was supplemented with 10% Clarity Max Western ECL Substrate (Bio-Rad). Images were recorded on a ChemiDoc MP Imaging System (Bio-Rad).
HeLa cells constitutively expressing YFP–parkin were treated with 2 µM of the respective compounds or an equivalent volume of DMSO on the day after seeding. Nineteen hours after compound treatment, 10 µM carbonyl cyanide m-chlorophenyl hydrazone (CCCP, Acros Organics) or DMSO of the equivalent volume was added for 1 h before cells were washed with ice-cold PBS. Cells were then lysed in urea lysis buffer (4 M urea, 50 mM Tris-HCl, pH 8, 150 mM NaCl, 1% (vol/vol) IGEPAL, 2 mM EDTA, 5% (vol/vol) glycerol, 1× EDTA-free protease inhibitor cocktail, 1 mM PMSF, 10 µM PR619, 20 mM N-ethylmaleimide, 4 mM 1,10-phenanthroline) and collected by scraping. Cells were homogenized by sonication for 10 s (2 s on and 2 s off) at 10% amplitude and centrifuged for 10 min at 14,000g and 4 °C.
Biotinylated OtUBD (2 nmol, prepared as described elsewhere[53]) was immobilized on 35 µl of a high-capacity NeutrAvidin agarose bead slurry (Pierce, Thermo Fisher Scientific) per condition for 1 h at 4 °C with rotation. Excess reagent was washed away with ice-cold PBS. The beads were then equilibrated in urea lysis buffer. For each condition, an equal amount of 3 mg protein (as determined by the Bradford assay, in 1 ml of lysis buffer, typically obtained from one 10-cm dish) was added to the beads. These were then incubated for 2 h at 4 °C with rotation and pelleted by centrifugation at 500g for 1 min, and the supernatant was removed. Beads were then washed once with lysis buffer, once with high-salt buffer (50 mM Tris-HCl, pH 8, 1 M NaCl) and twice with PBS. Elution was carried out using 2× LDS sample buffer with 25 mM DTT and boiling for 5 min at 95 °C. After pelleting the beads at 500g for 1 min, the supernatant was transferred and analyzed by SDS–PAGE and western blotting as described above.

USP30^ch1 = USP30^ch1 (Homo sapiens, UniProt Q70CQ3); test: Thermal shift assay, USP30 ch1; format: binding; details: 20 μM inhibitor
USP30^ch1, sequence (Q70CQ3 64-502): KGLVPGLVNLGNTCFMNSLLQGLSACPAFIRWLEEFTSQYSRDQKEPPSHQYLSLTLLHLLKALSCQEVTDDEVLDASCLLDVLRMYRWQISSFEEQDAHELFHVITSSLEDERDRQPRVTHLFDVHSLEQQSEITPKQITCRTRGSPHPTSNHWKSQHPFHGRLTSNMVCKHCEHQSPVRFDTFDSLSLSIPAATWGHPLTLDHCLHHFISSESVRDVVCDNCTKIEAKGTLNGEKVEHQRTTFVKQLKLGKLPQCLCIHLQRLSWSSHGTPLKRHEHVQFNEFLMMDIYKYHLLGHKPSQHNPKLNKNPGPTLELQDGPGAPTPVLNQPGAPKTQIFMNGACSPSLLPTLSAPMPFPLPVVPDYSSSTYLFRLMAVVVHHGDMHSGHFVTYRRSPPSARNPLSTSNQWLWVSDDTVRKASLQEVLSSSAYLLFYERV
USP30^ch1, sequence (Q93009 325-395 partner): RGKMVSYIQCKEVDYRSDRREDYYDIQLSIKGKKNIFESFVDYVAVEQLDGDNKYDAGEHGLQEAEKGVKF
Protocol: (§1) The thermal stability of USP30 constructs and effects of either inhibitor or Ub-PA binding were determined by thermal shift assays. Inhibitor, Ub-PA and SYPRO orange dye (Sigma, 5,000× stock in DMSO) solutions were prepared in 1× PBS, 4 mM DTT. Inhibitor/Ub-PA was prediluted to 100 µM, and SYPRO orange dye was prediluted to 50× (from the commercial stock). Mixtures of protein, inhibitor/Ub-PA and SYPRO were prepared with inhibitor/Ub-PA at a final concentration of 20 μM, SYPRO at a final concentration of 4× and protein at a final concentration of 2 μM for c1, 4 μM for ch1, ch4 and c2 and 3 μM for ch2 and ch3. Samples were added in triplicate to a white 96-well PCR plate (Bio-Rad). Fluorescence intensity was monitored (excitation, 450–490 nm; emission, 560–580 nm) at a gradient of 20–90 °C (increment of 0.3 °C, hold for 5 s before read) on a real-time PCR system (Bio-Rad).

[2] = Solubility in aqueous buffers (observation during crystallization); format: physicochemical
[3] = tested on: T1, Flag-tagged, full-length USP30 F453Y in HEK293 cells; test: Cellular ubiquitin probe competition, overexpressed Flag-tagged USP30 F453Y; format: cell-based, human; details: 2 µM compound, 2 h; HA-Ub-PA probe in lysate
T1 construct: C-terminally Flag-tagged human USP30 (1–517) was used for transient transfection; expressed in transfected cells; host or cells: HEK293, transient transfection of a pOPINE vector
Protocol: HEK293 cells (8 × 10^5 cells per well) were seeded in six-well plates and cultivated for 24 h. PEI transfecting reagent (Polysciences) was pre-incubated for 10 min with the vectors in 200 μl Opti-MEM medium (2 µg DNA per well). Cells were transfected and incubated for 48 h. Following the treatment with either compounds or DMSO in fresh medium for an additional 2 h, cells were processed as described below. Cells were seeded at 8 × 10^5 cells per well and grown for 48 h. […] The medium was aspirated, and cells were washed once with ice-cold PBS. Cells were collected by scraping in lysis buffer (150 mM NaCl, 250 mM sucrose, 50 mM Tris, pH 8.0, 5 mM TCEP) supplemented with EDTA-free complete protease inhibitor cocktail and benzonase. Suspended cells were homogenized by 12 bursts of a microtip probe sonicator (Branson Sonifier 450) at 10% amplitude with pulses of 1 s on ice. Remaining cell debris was separated by centrifugation (20,817g, 5 min, 4 °C). […] After incubation for 10 min at room temperature, reactions were quenched by the addition of 4× reducing LDS sample buffer. Samples were resolved by SDS–PAGE and further analyzed via western blot. Using a Trans-Blot Turbo system (Bio-Rad, 1.0 A, 25 V, 30 min), proteins were blotted onto a nitrocellulose membrane. […]

USP30^ch3 I154A = USP30^ch3 I154A (Homo sapiens, UniProt Q70CQ3, I154A, form not given); test: Thermal shift assay, USP30 ch3 I154A; format: binding; details: 20 μM inhibitor
USP30^ch3 I154A, sequence (Q70CQ3 64-502 I154A, form open): as the sequence (Q70CQ3 64-502) above, with I91A counted along it
USP30^ch3 I154A, sequence (P54578 248-318 partner, form open): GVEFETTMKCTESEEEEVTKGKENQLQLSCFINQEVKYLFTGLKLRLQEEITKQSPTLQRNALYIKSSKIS
USP30^ch3 I154A, sequence (Q9P2H5 821-846 partner, form open): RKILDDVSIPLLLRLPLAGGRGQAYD
Protocol: as §1

USP30^ch2 = USP30^ch2 (Homo sapiens, UniProt Q70CQ3); test: Thermal shift assay, USP30 ch2; format: binding; details: 20 μM inhibitor
USP30^ch2, sequence (Q70CQ3 64-502): as the sequence (Q70CQ3 64-502) above
USP30^ch2, sequence (P54578 248-318 partner): as the sequence (P54578 248-318 partner, form open) above
Protocol: as §1

SMILES | polyubiquitination of TOM20 and TOM40 [1] | polyubiquitination of mitofusin 2 (MFN2) [1] | Tm in presence of compound, USP30^ch1 (USP30^ch1) [°C] | solubility in aqueous buffers [2] | probe labeling of Flag-USP30 F453Y [3] | Tm in presence of compound, USP30^ch3 I154A (USP30^ch3 I154A) [°C] | Tm in presence of compound, USP30^ch2 (USP30^ch2) [°C]
CC(C)(C)NS(=O)(=O)c1ccc(NC(=O)[C@H](Cc2ccccc2)NC(=O)c2ccc(F)cc2)cc1 [compound 39] | elevated | not affecting | 56.1 | poor solubility | equally labeled | 59.0 | 59.1
CC(C)(CO)NS(=O)(=O)c1ccc(NC(=O)[C@H](Cc2ccccc2)NC(=O)c2ccc(F)cc2)cc1 [NK036] | elevated | not affecting | 55.2 | improved | equally labeled | 59.0 | 58.5
